We go through three molecules from patent US20030166537A1, “Use of GDNF for treating corneal defects” (Biopharm Gesellschaft Zur Biotechnologischen Entwicklung …, priority 1999, published 2003).

Assay [1] concerns primary rabbit corneal epithelial cells. Kind of assay: single cell clonal growth assay (colony formation, clonal proliferation). It is filed as cell-based. Conditions: for total number of colonies: day 6, control 40±20. An excerpt:
In order to evaluate the effect of GDNF on corneal proliferation, recombinant human GDNF was used (R&D, Minneapolis, Minn., USA). For the evaluation of the effect on corneal epithelial proliferaton a single cell clonal growth model was utilized which allows to determine the effect of the given growth factor on both colony formation as well as clonal expansion (Kruse et al., 1991). New Zealand white rabbits were housed and treated according to the ARVO Resolution of Animals in Research and under observation of German Federal Laws and the laws of the State of Baden-Württemberg. Prior to sacrifice with an intravenous overdose of pentobarbital, they received an intramuscular injection of xylazine hydrochloride and ketamine hydrochloride. The details of the clonal growth assay are described in Kruse et al. (1991). 5000 viable cells were seeded in each 16 mm dish in serum-free medium MCDB 151 with a supplement (S) of insulin (5 μg/ml), transferrin (5 μg/ml), selenium (5 ng/ml) and hydrocortisone (5 μg/ml) (all from Sigma, Deisenhofen, Germany). […] This quantification was facilitated by the use of dishes which contained a grit on the bottom which is roughly 2 mm wide (from Sarstedt, Newton, N.C., USA). For data collection the entire surface area of four randomly selected dishes for each condition was screened. Furthermore, the number of cells per colony was determined in 75 randomly selected colonies for each condition. Furthermore, the total number of cells/dish was calculated in order to carry out an evaluation for artemin. In order to stimulate the cellular proliferation, GDNF (50 or 200 ng/ml) or artemin (250 ng/ml) was added to the medium. In order to estimate the rate of proliferation after 12 days (a time when neighbouring colonies started to grow into each other and, therefore, prevented numerical quantification) dishes were fixed in −20° C. methanol and stained with methylene blue.
All experiments examining the effect of GDNF on corneal proliferation were performed in triplicate with cells from different donors. The influence of growth factor on colony formation, colony size and cell number was studied using one-way analysis of variance. […] Student's t-test was employed to determine which differences were significant after analysis of variance.

The subject of assay [2] is primary human corneal epithelial cells. As to the kind of experiment: in vitro wound healing assay (scratch wound), primary cells. It is filed as cell-based. Conditions: 10 ng/ml; 18 h; control less than 10%. The procedure: (§1) For in vitro wound healing assays primary corneal epithelial cells and cells from the corneal epithelial cell line were seeded at a density of 5×10^5 onto 60 mm plastic dishes with 2 mm grid (Sarstedt, Numbrecht, Germany) and cultured for 2 days until subconfluency. For experiments with artemin primary cultured rabbit corneal epithelial cells were used. These cells had been isolated with Dispase (1,2 U/ml) and trypsin/EDTA. Rabbit cells had been cultured in medium 500 with additives (Cascade Biologies).
(§2) The cell layer was injured under the microscope by inducing several parallel scratches with a soft plastic cell scrubber (Falcon, Becton and Dickinson, Heidelberg, Germany). The tip of the scrubber was cut and measured about 1 mm and consequently the width of the scratch in the cell layer was also about 1 mm. Selected areas in the dishes were marked with a very fine marker pen and consecutive images were taken at different time points at 5×magnification under an inverted phase contrast microscope (Axiovert 25, Zeiss, Jena, Germany) equipped with a video camera. Following the experimental injury dishes were incubated in SHEM medium either containing no growth factors (control) or containing either GDNF (250 ng/ml) (recombinant human GDNF expressed in E. coli), NGF (250 ng/ml) (Boehringer Mannheim, Germany) or EGF ([…]). For experiments investigating artemin cells were cultured in medium 500 without additives and 250 ng artemin was added. For each condition four representative areas were evaluated within three dishes. The mean diameter of the scratch in each representative area was set as 100% at the beginning of the experiment. 18 hours later the mean diameter of the same scratch was calculated again and expressed in percent of the diameter at the beginning of the experiment.

For assay [3], the system named is corneal epithelial cells from the SV40 transformed cell line. As to the kind of experiment: in vitro wound healing assay (scratch wound), cell line. To be noted: 10 ng/ml; 18 h; control 20%±4.5. It counts as cell-based, human. The protocol:
as §1, §2

In assay [4] the test system is primary rabbit corneal epithelial cells. Kind of assay: in vitro wound healing assay (scratch wound), artemin. It counts as cell-based. To be noted: within 6 h. The procedure:
as §1
(§3) The cell layer was injured under the microscope by inducing several parallel scratches with a soft plastic cell scrubber (Falcon, Becton and Dickinson, Heidelberg, Germany). The tip of the scrubber was cut and measured about 1 mm and consequently the width of the scratch in the cell layer was also about 1 mm. Selected areas in the dishes were marked with a very fine marker pen and consecutive images were taken at different time points at 5×magnification under an inverted phase contrast microscope (Axiovert 25, Zeiss, Jena, Germany) equipped with a video camera. […] For each condition four representative areas were evaluated within three dishes. […] 18 hours later the mean diameter of the same scratch was calculated again and expressed in percent of the diameter at the beginning of the experiment.

The target of assay [5] is T1, Ret (Homo sapiens, UniProt P07949).
T1 construct: The level of phosphorylated Ret (approximately 150 kD) in cultured corneal epithelial cells (control) was low prior to addition of GDNF; endogenous in cells; host or cells: SV40-transformed human corneal epithelial cell line (Araki-Sasaki et al., 1995)
Kind of assay: immuno-precipitation and western blot of tyrosine-phosphorylated Ret in cultured corneal epithelial cells. It counts as cell-based. Conditions: cells pretreated with herbimycin A, then GDNF 10 minutes.

Assay [6] concerns FAK, Pyk2, cRaf, MEK1, Erk 1 and 2, Elk, RSK. As to the kind of experiment: western blot of phosphorylated intracellular signaling proteins in corneal epithelial cells. It counts as cell-based, human. Conditions: preincubation with herbimycin A for two hours. The procedure:
In order to investigate which protein kinase cascades are activated by GDNF and artemin, corneal epithelial cells from the cell line were seeded at a density of 5×10^5 cells/75 cm^2 and cultured in SHEM with 10% FBS for one day. Cultures were then washed with PBS and incubated in serum-free SHEM without additives or with GDNF (200 ng/ml) or with artemin (250 ng) for 10 to 40 minutes. After washing with PBS, cultured cells were solubilized in lysis buffer containing 50 mM Tris2Cl (pH8.0), 150 mM NaCl, 0.02% sodium azide, 100 μg/ml phenylmethylsulfonyl fluoride, 1 mM Na3VO4, 1% Triton X-100 and a mixture of several protease inhibitors [complete™, Boehringer Mannheim (1 tablet/30 ml buffer)]. 80 μg total protein per lane was fractionated by NuPAGE 10% SDS-MOPS-Bis-Tris gel or NuPAGE 3-8% Tris-acetate gel (all from NOVEX, San Diego, Calif.) and blotted onto a nitrocellulose membrane. Phosphorylated proteins were detected with phospho-specific antibodies and visualized with the ECL western blot analysis system (Amersham). Antibodies against phospho-Raf(ser259), phospho-MEK1/2(ser217/221), phospho-MAPK (Erk1/2) (thr202/tyr204), phospho-p90 ribosomal S6 kinase (RSK) (ser381) and phospho-Elk-1(ser383) were obtained from New England Biolabs (Beverly, Mass.). Antibody against phospho-FAK (tyr397/tyr407/tyr576/tyr577/tyr861/tyr925) and phospho-Pyk2 (tyr402/tyr579/tyr/580/tyr881) were purchased from Biosource (Camarillo, Calif., USA). A monoclonal antibody against phospho-tyrosine came from Sigma (Deisenhofen, Germany).
(A western blot detects proteins with antibodies after separation by electrophoresis.)

Assay [7] has as its system corneal epithelial cells. Kind of assay: in vitro wound healing model with herbimycin A. It is filed as cell-based. Conditions: 10 μM Herbimycin A in presence of 250 ng/ml GDNF; 18 hours. The procedure: as §1
as §3, with “experiment. […]” for “experiment.”

The subject of assay [8] is FAK, Pyk2, cRaf, MEK1, Erk 1 and 2, Elk, RSK. As to the kind of experiment: western blot of phosphorylated intracellular signaling proteins in corneal epithelial cells. It counts as cell-based. Conditions: 250 ng/ml artemin for 10, 20, 40 and 60 minutes; human corneal epithelial cells.

T1 sequence (P07949 29-1114): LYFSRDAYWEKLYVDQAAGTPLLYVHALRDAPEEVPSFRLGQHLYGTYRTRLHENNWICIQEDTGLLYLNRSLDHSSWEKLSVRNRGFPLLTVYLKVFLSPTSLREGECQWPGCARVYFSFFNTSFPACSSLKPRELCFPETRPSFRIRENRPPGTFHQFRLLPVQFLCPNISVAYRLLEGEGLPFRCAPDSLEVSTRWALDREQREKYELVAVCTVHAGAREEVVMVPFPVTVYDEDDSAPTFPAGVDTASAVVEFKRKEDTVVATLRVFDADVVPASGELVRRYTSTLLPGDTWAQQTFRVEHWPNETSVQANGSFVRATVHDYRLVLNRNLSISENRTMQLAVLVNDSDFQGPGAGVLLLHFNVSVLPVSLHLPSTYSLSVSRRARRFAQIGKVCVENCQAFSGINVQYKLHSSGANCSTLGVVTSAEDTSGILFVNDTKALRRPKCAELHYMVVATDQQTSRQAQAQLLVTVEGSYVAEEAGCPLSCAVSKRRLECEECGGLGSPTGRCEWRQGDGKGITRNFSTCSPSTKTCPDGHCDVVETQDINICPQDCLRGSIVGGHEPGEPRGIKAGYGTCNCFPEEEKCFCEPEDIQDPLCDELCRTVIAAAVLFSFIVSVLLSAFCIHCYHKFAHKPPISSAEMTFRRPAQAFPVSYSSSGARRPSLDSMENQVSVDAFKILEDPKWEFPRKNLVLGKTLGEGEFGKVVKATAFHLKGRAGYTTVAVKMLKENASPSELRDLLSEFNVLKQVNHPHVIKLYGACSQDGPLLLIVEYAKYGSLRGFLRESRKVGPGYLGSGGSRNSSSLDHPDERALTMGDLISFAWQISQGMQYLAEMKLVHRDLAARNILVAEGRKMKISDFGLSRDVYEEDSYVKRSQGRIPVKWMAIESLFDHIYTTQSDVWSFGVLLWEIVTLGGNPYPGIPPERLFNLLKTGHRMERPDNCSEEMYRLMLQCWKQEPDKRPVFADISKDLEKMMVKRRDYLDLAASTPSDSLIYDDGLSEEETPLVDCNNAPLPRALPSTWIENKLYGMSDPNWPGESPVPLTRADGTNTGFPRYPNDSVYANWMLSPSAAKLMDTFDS

Regarding “EGF: growth factor used as positive control at 10 ng/ml”, in assay [1] (10 ng/ml), the “total number of colonies” value turned out to be 58±18. The figures for the “gap in the cell monolayer filled” value in assay [2] and in assay [3] were 19.0%±8.6 and 44.6±9%, respectively. The “in vitro wound healing” value in assay [4] (10 ng/ml, vs control) is listed as “significant increase”.

Consider `CO[C@H]1[C@@H](OC)C[C@H](C)[C@@H](OC)C2=CC(=O)C=C(NC(=O)/C(C)=C/C=C\[C@H](OC)[C@@H](OC(N)=O)/C(C)=C/[C@@H]1C)C2=O` [herbimycin A, reference compound], for which the “GDNF-dependent tyrosine phosphorylation of Ret” value in assay [5] is listed as “specifically inhibited”. In addition, in assay [6], the “GDNF-dependent phosphorylation of Erk” value is on record as “significantly decreased”, the “GDNF-dependent phosphorylation of FAK” value was “significantly decreased” and the “GDNF-dependent phosphorylation of cRaf” value was “significantly decreased”. Further, in assay [7], the wound gap closed is reported as 19.2±5.5%.

B1: artemin: GDNF family member, also referred to as enovin or neublastin (SEQ ID NO 5) (protein)
chain: CRLRSQLVPVRALGLGHRSDELVRFRFCSGSCRRARSPHDLSLASLLGAGALRPPPGSRPVSQPCCRPTRYEAVSFMDVNSTWRTVDRLSATACGC
modifications: artemin
Regarding B1, the “total number of cells per dish” value in assay [1] (250 ng/ml, control 200±98 cells, p<0.001) is reported as “significantly increased”. Also, the “total number of colonies” value in assay [1] (250 ng/ml) came to 79±38. The “gap in the cell monolayer filled” value in assay [4] (100 ng/ml, control about 20%) is given as 29±8%. In addition, in assay [8], the “phosphorylated Erk 1 and 2” value is “gradually increased”; the “phosphorylated MEK” value is “increasing amount”.
